Measurements: patent publication US20240261272A1, “LPA1 ANTAGONISTS FOR TREATING INTERSTITIAL LUNG DISEASE” (Bristol-Myers Squibb Company, priority 2022, published 2024)

Test system: participants with PPF
Experiment: Phase 2 study, PPF cohort: efficacy (rate of FVC decline in % of predicted, FVC)
Assay type: in vivo, human
Details: for Relative Reduction: table title, dose not given
Description: A total of 123 participants with PPF were randomized. Participants (age ≥21 years) were randomized (1:1:1) to receive 30 mg or 60 mg Compound A or PBO twice daily for 26 weeks. […] Immunosuppressive medications (mycophenolate mofetil, mycophenolic acid, azathioprine and/or tacrolimus) were permitted only if dosing is stable for ≥6 months prior to screening. If receiving antifibrotic agents pirfenidone or nintedanib, patients had to receive a stable dosage for ≥3 months prior to screening and during the screening period; if not receiving pirfenidone or nintedanib, patients had to be naive to both drugs or not have received either 4 weeks prior to Day 1. A total of 47 (38.2%) subjects were receiving antifibrotic treatment (with or without immunosuppression therapy). Of those subjects, 34 were being treated with nintedanib and 13 with pirfenidone. Participants were stratified by usual interstitial pneumonia (UIP) pattern (presence versus absence) and background therapy (antifibrotics +/−ILD-targeted immunosuppression versus ILD-targeted immunosuppression alone versus none).UIP pattern was present in 52% of subjects and unclassifiable ILD was he most common disease categorization.
The study was not powered to detect statistical significance (no formal testing). No target effect size was defined in the study design. There were two estimand approaches for analysis: Treatment Policy: Effect of treatment with dose reduction as part of treatment regimen.
While-On Treatment: Effect of treatment without dose reduction.
The main efficacy endpoint, rate of FVC decline (in % of predicted) from baseline to wk-26 in the PPF cohort, was estimated using a linear mixed-effects model utilizing all FVC timepoints. It was analyzed under a primary estimand (utilizing all data, treatment policy strategy), and under supplementary estimand (utilizing all data up to the point of dose reduction, while-on-treatment strategy). Analysis was performed in the overall population as well as in sub-groups by 1) background anti-fibrotic treatment or not 2) UIP radiographic pattern (presence or not). The mean baseline ppFVC was 66.700 for the PPF cohort.

CCCN(C)C(=O)OCc1c(-c2ccc(O[C@H]3CCC[C@H](C(=O)O)C3)c(C)n2)nnn1C [Compound A, (1S,3S)-3-((2-methyl-6-(1-methyl-5-(((methyl(propyl)carbamoyl)-oxy)methyl)-1H-1,2,3-triazol-4-yl)pyridin-3-yl)oxy)cyclohexane-1-carboxylic acid]
dose response (in words) (PPF cohort, 30 mg and 60 mg): Clear dose response
mean observed change from baseline in ppFVC percentage and FVC versus placebo (in words) (PPF cohort, 30 mg and 60 mg, FIGS. 10 and 11): show improvement over placebo at week 8
consistency of efficacy across sub-groups (in words) (PPF cohort, irrespective of background antifibrotics or of UIP pattern): Efficacy consistent in all sub-groups
FVC (% Predicted) Rate of Decline, Difference (PPF, 30 mg - placebo, UIP Present, Primary Estimand): 0.88 % Predicted
FVC (% Predicted) Rate of Decline, Slope (PPF, 30 mg, Not Receiving Antifibrotic Treatment, Supplementary Estimand): −2.83 % Predicted
FVC (% Predicted) Rate of Decline, Slope (PPF, 30 mg, Overall Population, Primary Estimand - Treatment Policy): −2.7 % Predicted
FVC (% Predicted) Rate of Decline, Slope (PPF, 30 mg, Receiving Antifibrotic Treatment, Supplementary Estimand): −1.8 % Predicted
FVC (% Predicted) Rate of Decline, Slope (PPF, 30 mg, UIP Absent, Supplementary Estimand): −2.24 % Predicted
FVC (% Predicted) Rate of Decline, Slope (PPF, 30 mg, UIP Present, Primary Estimand): −3.07 % Predicted
FVC (% Predicted) Rate of Decline, Difference (PPF, 60 mg - placebo, UIP Absent, Supplementary Estimand): 3.8 % Predicted
FVC (% Predicted) Rate of Decline, Slope (PPF, 60 mg, Not Receiving Antifibrotic Treatment, Supplementary Estimand): −1.56 % Predicted
FVC (% Predicted) Rate of Decline, Slope (PPF, 60 mg, Overall Population, Supplementary Estimand - While On Treatment): −1.3 % Predicted
FVC (% Predicted) Rate of Decline, Slope (PPF, 60 mg, Receiving Antifibrotic Treatment, Supplementary Estimand): −1.1 % Predicted
FVC (% Predicted) Rate of Decline, Slope (PPF, 60 mg, UIP Absent, Supplementary Estimand): −0.7 % Predicted
FVC (% Predicted) Rate of Decline, Slope (PPF, 60 mg, UIP Present, Primary Estimand): −1.46 % Predicted
Treatment difference 60 mg v placebo, rate of decline in ppFVC baseline to Week 26 (PPF, Non UIP subgroup): 3.80
Relative Reduction (PPF, Not Receiving Antifibrotic Treatment, Primary Estimand): Estimand - Treatment Policy (Relative Reduction = 68.5%)
Relative Reduction (PPF, Not Receiving Antifibrotic Treatment, Supplementary Estimand): Estimand - While on Treatment (Relative Reduction = 62.6%)
Relative Reduction (PPF, Receiving Antifibrotic Treatment, Primary Estimand): Estimand - Treatment Policy (Relative Reduction = 85%)
Relative Reduction (PPF, Receiving Antifibrotic Treatment, Supplementary Estimand): Estimand - While on Treatment (Relative Reduction = 74.9%)
Relative Reduction (PPF, UIP Absent, Primary Estimand): Policy Strategy (Relative Reduction = 83.6%)
Relative Reduction (PPF, UIP Absent, Supplementary Estimand): While on Treatment (Relative Reduction = 84.4%)
Relative Reduction (PPF, UIP Present, Primary Estimand): Policy Strategy (Relative Reduction = 63%)
Relative Reduction (PPF, UIP Present, Supplementary Estimand): While on Treatment (Relative Reduction = 54%)
